The results in this text go back to PMC4775225, “Bromodomain inhibition of the transcriptional coactivators CBP/EP300 as a therapeutic strategy to target the IRF4 network in multiple myeloma” (eLife, 2016).

For assay [1], the target named is T1, full length BRD4 ZsGreen fusion protein (Homo sapiens, UniProt O60885).
T1 construct: CBP: CBP-bromodomain/BRD9; BRD4: full length BRD4; expressed in transfected cells
Nature of the assay: Bromodomain chromatin release assay, BRD4 (U2OS, high content imaging). The format is cell-based. To be noted: 2 hr, n = 2 biological replicates ± SEM, read-out: IC50 (μM), BRD4 chromatin release (EC50). How it is done:
As described previously ([Huang et al., 2014]), this assay monitors the compound-dependent release and aggregation of a fusion protein consisting of a bromodomain and the fluorescent protein ZsGreen. For the BRD4 chromatin release assay, U2OS cells capable of inducibly expressing the full-length BRD4 protein in fusion with ZsG were generated using the pLVT3G/ZsGreen-BRD4/TO3G vector and maintained in blasticidin at 15 μg/ml. […] Therefore, the bromodomain (BD) of CBP was cloned into full length BRD9 (replacing the BRD9 BD) in frame with a ZsGreen fluorescent tag (ZsG). U2OS cells capable of inducibly expressing the ZsGreen-CBPBD fusion protein were generated by lentiviral delivery of the pLVT3G/BRD9-ZsG-CBPBD/TO3G vector, which contains both the inducible fusion protein and the tet transactivator. Cells were selected and maintained in the presence of 15 μg/ml blasticidin. 5000 cells/well were seeded in 384-well imaging plates in the presence of 2 μg/ml doxycycline to induce the expression of ZsG-fusion proteins. After 16 hr of incubation with doxycycline, fresh media containing serial dilution of compounds were added to the cells for 2 hr at 37°C. Cells were fixed with 4% paraformaldehyde (PFA) dissolved in PBS for 15 min at room temperature. Images of cells were acquired using ImageXpress Micro (Molecular Devices, Inc.; Sunnyvale, CA) and processed with the Transfluor Module of MetaXpress software. Average pits per cell values were obtained from four adjacent images in each well with two technical replicates for each compound concentration. Dose-response curves were generated by plotting the average pits per cell values at each dose and EC50 values were calculated by a four-parameter non-linear regression model in GraphPad Prism.

Assay [2] addresses T2, CBP bromodomain and histone H3.3 (Homo sapiens, UniProt Q92793).
T2 construct: NanoBRET with the isolated CBP bromodomain and histone H3.3 in 293 cells; host or cells: HEK293
Nature of the assay: NanoBRET, CBP bromodomain/histone H3.3 in HEK293 cells. The assay is classed as cell-based. To be noted: NanoBRET, 293 cells. On the procedure:
NanoBRET was carried out using the NanoBRET Protein:Protein Interaction System (Promega, Inc.; Madison, WI) according to the manufacturer’s instructions. Briefly, HEK293 cells were transiently co-transfected with a vector for histone H3.3-HaloTag and a NanoLuc tagged CBP bromodomain expression construct. Transfected cells were plated in 96 -well plates in the presence or absence of ligand, then treated with dose titrations of indicated compounds. Readings were performed on an Envision Plate Reader (Perkin Elmer, Inc.; Waltham, MA) and BRET readings were calculated by dividing the acceptor emission value (600 nm) by the donor emission value (460/50 nm).
In general terms: Bioluminescence resonance energy transfer reports proximity on the nanometre scale.

Assay [3] has as its target T3, first bromodomain of BRD4 (BRD4-BD1) (Homo sapiens, UniProt O60885).
T3 construct: the first bromodomain of BRD4 (BRD4-BD1)
Nature of the assay: AlphaLISA, acetylated peptide binding to BRD4-BD1. To be noted: BRD4-BD1, H4-TetraAc-biotin peptide; n ≥ 2 independent replicates. How it is done: (§1) Compound at varying concentrations were dispensed into 384 well Proxiplates (Perkin Elmer) using Echo technology (Labcyte, Inc.; Sunnyvale, CA). For CBP assays, 0.5 μM His-Flag-tagged CBP bromodomain (amino acids 1082–1197) was incubated with 0.003 μM H4-TetraAc-biotin for 20 min at room temperature in 1x reaction buffer (50 mM HEPES pH 7.5, 1 mM TCEP, 0.069 mM Brij-35, 150 mM NaCl, and 0.1 mg/ml BSA). Streptavidin acceptor beads and nickel donor beads (Perkin Elmer) were added to 15 μg/ml with a Combi Multidrop dispenser. Plates were sealed and incubated at 90 min in the dark at room temperature, and plates were read on an Envision plate reader (Perkin Elmer) according to manufacturer’s instructions. For the BET assays, the protocol was similar except that BET family bromodomains were used at 0.03 μM (BRD4-BD1) and incubated with 0.2 μM H4-TetraAc-biotin for 20 min in reaction buffer (40 mM HEPES pH7.0, 1 mM DTT, 0.069 mM Brij-35, 40 mM NaCl, and 0.1 mg/ml BSA). Streptavidin donor beads and Anti-Flag Acceptor beads (Perkin Elmer) were added to 10 μg/ml, and then plates were sealed and incubated in the dark for 60 min prior to reading on the Envision.
A general note: In Alpha technology, singlet oxygen from a donor bead excites a nearby acceptor bead.

In assay [4] the target is T4, CBP bromodomain (amino acids 1082–1197) (Homo sapiens, UniProt Q92793).
T4 construct: His-Flag-tagged CBP bromodomain (amino acids 1082–1197)
T4 sequence (Q92793 1082-1197): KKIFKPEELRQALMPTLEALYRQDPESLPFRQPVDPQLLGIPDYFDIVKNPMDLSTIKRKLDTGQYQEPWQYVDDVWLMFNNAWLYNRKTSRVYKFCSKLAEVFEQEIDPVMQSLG
Description: AlphaLISA, acetylated peptide binding to CBP bromodomain. To be noted: isolated CBP bromodomain, H4-TetraAc-biotin peptide; n ≥ 2 independent replicates. How it is done: as §1

T2 sequence (Q92793 1085-1192 limits assumed): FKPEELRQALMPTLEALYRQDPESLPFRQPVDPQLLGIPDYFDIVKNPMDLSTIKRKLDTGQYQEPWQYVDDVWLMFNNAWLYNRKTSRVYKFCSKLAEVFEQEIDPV

For orientation: EC50 means the midpoint of the concentration-response curve. Usually IC50 stands for the concentration that gives 50% inhibition. A low value points to greater potency. With `Cc1sc2c(c1C)C(c1ccc(Cl)cc1)=N[C@@H](CC(N)=O)c1nnc(C)n1-2` [CPI203], the concentration giving a half-maximal response (EC50) in assay [1] came to 0.05 ± 0.02 µM. Further, in assay [2], the “dose-dependent inhibition of CBP-H3.3 binding” value was “did not display dose-dependent inhibition”. Besides, the results for the IC50 in assay [3] and in assay [4] were 50 ± 10 nM and 6500 ± 640 nM, respectively.
